Measurements from patent publication US11617726B2, “Method for preventing, treating, or ameliorating a microbial infection” (priority 2018, dated 2023).

Tested on: Acinetobacter baumannii isolates
Experiment: Antimicrobial susceptibility test, disc diffusion method (CLSI M100-S24)
Format: cell-based
Set-up: key to Inhibition zone: “NZ” indicated that no zone of inhibition was observed
Conditions: for susceptibility category: AMX disc; for Inhibition zone: disc diffusion
Procedure: A total of 33 non-duplicate, non-consecutive clinical isolates of Multi-Drug Resistant (MDR) Acinetobacter baumannii were collected from burn wards (“AB1-AB33”). Acinetobacter baumannii ATCC BAA 747 and Pseudomonas aeruginosa ATCC 27853 were used as control strains. The isolates were stored at −80° C. in trypticase soy broth containing 20% glycerol.
Antimicrobial susceptibility tests of the collection of isolates were conducted using the disc diffusion method. The experiment was performed according to the recommendations and guidelines of Clinical Laboratory Standard Institutes (CLSI M100-S24; 2014). Clinical and Laboratory Standards Institute (CLSI), “Performance standards for antimicrobial susceptibility testing; twenty-fourth informational supplement,” Document M100-S24, Clinical and Laboratory Standards Institute (CLSI), Wayne, Pa., USA, 2014.
A panel of commercial antibiotic discs (Amoxicillin (AMX), Amoxicillin/clavulanic acid (AMX/CLA), Piperacillin (PIP), Piperacillin/Tazobactam (PIP/TAZ), Ceftazidime (CAZ), Cefotaxime (CTX), Cefepime (FEP), Cefoxitin (FOX), Aztreonam (ATM), Imipenem (IP), Gentamicin (GEN), Amikacin (AK), Neomycin (NEO), Levofloxacin (LEV), Chloramphenicol (CHL), Tetracycline (TET), sulfamethoxazole/trimethoprim (SUL/TRI) was used for susceptibility testing. All commercial antibiotic discs were purchased from BBL (Becton Dickinson, USA).
Forty grams of Mueller-Hinton Agar (MHA) were suspended in 1 Liter distilled water and then boiled to dissolve the powder completely. The medium was sterilized by autoclaving at 121° C. for 15 min. After autoclaving, the medium was cooled to 45° C. and 25 mL of molten agar media was poured into sterile Petri dishes (90 mm diameter) to give a depth of about 4 mm. The surface of the agar was dried to remove excess moisture before use. The plates were stored at 4-8° C. in sealed plastic bags if not used immediately.
The inoculum suspension was prepared by selecting three to five morphologically similar colonies from overnight growth (16-24 h of incubation) on blood agar medium. […] The suspension density was measured using a UV spectrophotometer calibrated with a 0.5 McFarland standard. The density of the suspension was adjusted to McFarland 0.5 by addition of saline or more microorganisms. The adjusted inoculum suspension was used within 60 min of preparation.
A sterile cotton swab was dipped into the bacterial suspension and the excess fluid was removed by turning the swab against the inside wall of the tube to avoid over-inoculation of plates. The inoculum was spread evenly over the entire surface of the agar plate by swabbing in three directions.
The predetermined panel of antimicrobial disks was applied firmly on the inoculated Mueller-Hinton agar surface within 15 min of inoculation of the plates by a disc dispenser device. A maximum of six disks were accommodated on a 90-mm circular plate.
Within 15 min of application of antimicrobial disks, the plates were inverted and incubated aerobically at 35-37° C. for 18-20 h.
After incubation, inhibition zones were measured at the point where no obvious growth is detected by the unaided eye when the plate is held about 30 cm from the eye. Inhibition zone diameters were measured to the nearest millimeter with a ruler. The plates were read from the back of the plate with reflected light against a dark background. Zone diameters were interpreted and categorized as susceptible “S”, intermediate “I”, or resistant “R” according to the CLSI clinical breakpoint tables (see Table 1 and Table 2).

CC1(C)S[C@@H]2[C@H](NC(=O)[C@H](N)c3ccc(O)cc3)C(=O)N2[C@H]1C(=O)O [AMX, Amoxicillin]
R (Resistant ≤13): susceptibility category (isolate AB1) | susceptibility category (isolate AB2) | susceptibility category (isolate AB3) | susceptibility category (isolate AB4) | susceptibility category (isolate AB5) | susceptibility category (isolate AB6) | susceptibility category (isolate AB7) | susceptibility category (isolate AB8) | susceptibility category (isolate AB9) | susceptibility category (isolate AB10) | susceptibility category (isolate AB11) | susceptibility category (isolate AB12) | susceptibility category (isolate AB13) | susceptibility category (isolate AB14) | susceptibility category (isolate AB15) | susceptibility category (isolate AB16) | susceptibility category (isolate AB17) | susceptibility category (isolate AB18) | susceptibility category (isolate AB19) | susceptibility category (isolate AB20) | susceptibility category (isolate AB21) | susceptibility category (isolate AB22) | susceptibility category (isolate AB23) | susceptibility category (isolate AB24) | susceptibility category (isolate AB25) | susceptibility category (isolate AB26) | susceptibility category (isolate AB27) | susceptibility category (isolate AB28) | susceptibility category (isolate AB29) | susceptibility category (isolate AB30) | susceptibility category (isolate AB31) | susceptibility category (isolate AB32) | susceptibility category (isolate AB33)
NZ: Inhibition zone (isolate AB1) | Inhibition zone (isolate AB2) | Inhibition zone (isolate AB3) | Inhibition zone (isolate AB4) | Inhibition zone (isolate AB5) | Inhibition zone (isolate AB6) | Inhibition zone (isolate AB7) | Inhibition zone (isolate AB8) | Inhibition zone (isolate AB9) | Inhibition zone (isolate AB10) | Inhibition zone (isolate AB11) | Inhibition zone (isolate AB12) | Inhibition zone (isolate AB13) | Inhibition zone (isolate AB14) | Inhibition zone (isolate AB15) | Inhibition zone (isolate AB16) | Inhibition zone (isolate AB17) | Inhibition zone (isolate AB18) | Inhibition zone (isolate AB19) | Inhibition zone (isolate AB20) | Inhibition zone (isolate AB21) | Inhibition zone (isolate AB22) | Inhibition zone (isolate AB23) | Inhibition zone (isolate AB24) | Inhibition zone (isolate AB25) | Inhibition zone (isolate AB26) | Inhibition zone (isolate AB27) | Inhibition zone (isolate AB29) | Inhibition zone (isolate AB30) | Inhibition zone (isolate AB33)
8 mm: Inhibition zone (isolate AB31) | Inhibition zone (isolate AB32)
9 mm: Inhibition zone (isolate AB28)

NC[C@@H]1O[C@H](O[C@H]2[C@@H](O)[C@H](O[C@@H]3[C@@H](O)[C@H](N)C[C@H](N)[C@H]3O[C@H]3O[C@H](CN)[C@@H](O)[C@H](O)[C@H]3N)O[C@@H]2CO)[C@H](N)[C@@H](O)[C@@H]1O [NEO, Neomycin]
11 mm: Inhibition zone (isolate AB8)
22 mm: Inhibition zone (isolate AB3)
14 mm: Inhibition zone (isolate AB6) | Inhibition zone (isolate AB24)
15 mm: Inhibition zone (isolate AB12) | Inhibition zone (isolate AB18) | Inhibition zone (isolate AB28) | Inhibition zone (isolate AB29) | Inhibition zone (isolate AB30)
20 mm: Inhibition zone (isolate AB2) | Inhibition zone (isolate AB9) | Inhibition zone (isolate AB17) | Inhibition zone (isolate AB26) | Inhibition zone (isolate AB33)
8 mm: Inhibition zone (isolate AB25) | Inhibition zone (isolate AB31)
NZ: Inhibition zone (isolate AB10) | Inhibition zone (isolate AB11) | Inhibition zone (isolate AB14) | Inhibition zone (isolate AB16) | Inhibition zone (isolate AB20)
10 mm: Inhibition zone (isolate AB5) | Inhibition zone (isolate AB23) | Inhibition zone (isolate AB32)
9 mm: Inhibition zone (isolate AB13) | Inhibition zone (isolate AB27)
27 mm: Inhibition zone (isolate AB4)
7 mm: Inhibition zone (isolate AB22)
23 mm: Inhibition zone (isolate AB1)
13 mm: Inhibition zone (isolate AB15) | Inhibition zone (isolate AB19) | Inhibition zone (isolate AB21)
12 mm: Inhibition zone (isolate AB7)

CO/N=C(\C(=O)N[C@@H]1C(=O)N2C(C(=O)O)=C(COC(C)=O)CS[C@H]12)c1csc(N)n1 [CTX, Cefotaxime]
16 mm: Inhibition zone (isolate AB25)
17 mm: Inhibition zone (isolate AB6)
21 mm: Inhibition zone (isolate AB33)
15 mm: Inhibition zone (isolate AB3)
8 mm: Inhibition zone (isolate AB4) | Inhibition zone (isolate AB31) | Inhibition zone (isolate AB32)
11 mm: Inhibition zone (isolate AB9)
NZ: Inhibition zone (isolate AB1) | Inhibition zone (isolate AB2) | Inhibition zone (isolate AB5) | Inhibition zone (isolate AB7) | Inhibition zone (isolate AB8) | Inhibition zone (isolate AB10) | Inhibition zone (isolate AB11) | Inhibition zone (isolate AB12) | Inhibition zone (isolate AB13) | Inhibition zone (isolate AB14) | Inhibition zone (isolate AB15) | Inhibition zone (isolate AB17) | Inhibition zone (isolate AB18) | Inhibition zone (isolate AB19) | Inhibition zone (isolate AB20) | Inhibition zone (isolate AB21) | Inhibition zone (isolate AB22) | Inhibition zone (isolate AB23) | Inhibition zone (isolate AB24) | Inhibition zone (isolate AB26) | Inhibition zone (isolate AB27) | Inhibition zone (isolate AB28) | Inhibition zone (isolate AB29) | Inhibition zone (isolate AB30)
32 mm: Inhibition zone (isolate AB16)
